How the values were obtained:
[1] = biological target: GluN2B-G611V-containing NMDARs (Homo sapiens, UniProt Q05586+Q13224, G611V); assay: TEVC current recordings from Xenopus oocytes, channel blocker inhibition; format: cell-based; settings: 2B-G611V, 100 μM blocker, −40 mV
[2] = biological target: GluN2B-N616K-containing NMDARs (Homo sapiens, UniProt Q05586+Q13224, N616K); assay: as above; format: cell-based; settings: 2B-N616K, 100 μM blocker, −40 mV
[3] = biological target: GluN2B-V620M-containing NMDARs (Homo sapiens, UniProt Q05586+Q13224, V620M); assay: as above; format: cell-based; settings: 2B-V620M, 100 μM blocker, −40 mV
WT GluN1/GluN2A [4] = biological target: T1, WT GluN1/GluN2A (Homo sapiens, UniProt Q05586+Q12879); assay: as above; format: cell-based; settings: WT GluN1/WT 2A, 100 μM blocker, −40 mV
GluN1/GluN2B-V620M = GluN1/GluN2B-V620M (Homo sapiens, UniProt Q05586+Q13224, V620M); assay: Current-voltage curves; settings: 2B-V620M
[5] = biological target: GluN2A-N614S-containing NMDARs (Homo sapiens, UniProt Q05586+Q12879, N614S); assay: TEVC current recordings from Xenopus oocytes, channel blocker inhibition; format: cell-based; settings: for % inhibition: 2A-N614S, 100 μM blocker, −40 mV
[6] = biological target: GluN2B-W607C-containing NMDARs (Homo sapiens, UniProt Q05586+Q13224, W607C); assay: as above; format: cell-based; settings: 2B-W607C, 100 μM blocker, −40 mV
WT GluN1/GluN2B [7] = biological target: T2, WT GluN1/GluN2B (Homo sapiens, UniProt Q05586+Q13224); assay: as above; format: cell-based; settings: WT GluN1/WT 2B, 100 μM blocker, −40 mV
GluN1-G620R/GluN2A = GluN1-G620R/GluN2A (Homo sapiens, UniProt Q05586+Q12879, G620R); assay: as above; format: cell-based; settings: for % inhibition: 1-G620R/2A, 100 μM blocker, −40 mV
GluN1/GluN2A-L611Q [8] = biological target: T3, GluN1/GluN2A-L611Q (Homo sapiens, UniProt Q05586+Q12879, L611Q); assay: as above; format: cell-based; settings: for % inhibition: 2A-L611Q, 100 μM blocker, −40 mV
[9] = biological target: GluN2A-N615K-containing NMDARs (Homo sapiens, UniProt Q05586+Q12879, N615K); assay: as above; format: cell-based; settings: 2A-N615K, 100 μM blocker, −40 mV
GluN1/GluN2B-N615I = GluN1/GluN2B-N615I (Homo sapiens, UniProt Q05586+Q13224, N615I); assay: as above; format: cell-based; settings: for % inhibition: 2B-N615I, 100 μM blocker, −40 mV
GluN1/GluN2B-N615K = GluN1/GluN2B-N615K (Homo sapiens, UniProt Q05586+Q13224, N615K); assay: as above; format: cell-based; settings: 2B-N615K, 100 μM blocker, −40 mV
[10] = biological target: GluN2B-V618G-containing NMDARs (Homo sapiens, UniProt Q05586+Q13224, V618G); assay: as above; format: cell-based; settings: 2B-V618G, 100 μM blocker, −40 mV
WT GluN1/GluN2A [11] = biological target: T1, WT GluN1/GluN2A; assay: Current-voltage curves; settings: WT 2A, 1 mM Mg^2+ alone
WT GluN1/GluN2B [12] = biological target: T2, WT GluN1/GluN2B; assay: Current-voltage curves; settings: WT 2B, 1 mM Mg^2+ alone
GluN1/GluN2A-L611Q [13] = biological target: T3, GluN1/GluN2A-L611Q; assay: Current-voltage curves; settings: 2A-L611Q, 1 mM Mg^2+ alone

## CC12CC3CC(C)(C1)CC(N)(C3)C2 [memantine]
[1]; w/ 1 mM Mg^2+
  % inhibition: 97 ± 1.2% (14)
[1]; w/o Mg^2+
  % inhibition: 95 ± 1.4% (10)
[2]; w/ 1 mM Mg^2+
  % inhibition: 88 ± 1.6% (24)^¥
[2]; w/o Mg^2+
  % inhibition: 93 ± 1.8% (7)
[3]; w/ 1 mM Mg^2+
  % inhibition: 95 ± 0.7% (7)
[3]; w/o Mg^2+
  % inhibition: 96 ± 0.7% (8)
WT GluN1/GluN2A [4]; w/ 1 mM Mg^2+
  % inhibition: 89 ± 1.3% (30)
WT GluN1/GluN2A [4]; w/o Mg^2+
  % inhibition: 94 ± 1.2% (15)
GluN1/GluN2B-V620M; 1 mM Mg^2+ + 0.3 μM memantine
  z δ (apparent, combined block): 1.54
GluN1/GluN2B-V620M; 1 mM Mg^2+ + 1.0 μM memantine
  z δ (apparent, combined block): 1.52
GluN1/GluN2B-V620M; 1 mM Mg^2+ + 3.0 μM memantine
  z δ (apparent, combined block): 1.38
GluN1/GluN2B-V620M; 1 mM Mg^2+ + 10 μM memantine
  z δ (apparent, combined block): 1.28
[5]; w/ 1 mM Mg^2+
  % inhibition: 25 ± 6.1% (10) ^*^¥
[5]; w/o Mg^2+
  % inhibition: 60 ± 4.1% (9)^¥
[5]; GluN2A-N614S, presence of 1 mM Mg^2+
  reduced sensitivity compared to the WT receptors: 9 fold
[6]; w/ 1 mM Mg^2+
  % inhibition: 92 ± 2.8% (11)
[6]; w/o Mg^2+
  % inhibition: 91 ± 2.0% (10)
WT GluN1/GluN2B [7]; w/ 1 mM Mg^2+
  % inhibition: 93 ± 0.8% (26)
WT GluN1/GluN2B [7]; w/o Mg^2+
  % inhibition: 97 ± 1.1% (18)
GluN1-G620R/GluN2A; w/ 1 mM Mg^2+
  % inhibition: 98 ± 0.4 (8) %
GluN1-G620R/GluN2A; w/o Mg^2+
  % inhibition: 96 ± 1.3% (8)
GluN1-G620R/GluN2A; GluN1-G620R
  increased potency in 1 mM Mg^2+ compared to the same variant in the absence of Mg^2+: 2.4 fold
GluN1-G620R/GluN2A; GluN1-G620R, absence of Mg^2+
  enhanced potency in comparison to WT NMDARs: 2.7 fold
GluN1-G620R/GluN2A; GluN1-G620R, presence of 1 mM Mg^2+
  enhanced potency compared to the WT receptors: 17 fold
GluN1/GluN2A-L611Q [8]; w/ 1 mM Mg^2+
  % inhibition: 94 ± 0.6% (9)
GluN1/GluN2A-L611Q [8]; w/o Mg^2+
  % inhibition: 87 ± 2.1% (12)
GluN1/GluN2A-L611Q [8]; GluN2A-L611Q
  increased potency in 1 mM Mg^2+ compared to the same variant in the absence of Mg^2+: 3.1 fold
GluN1/GluN2A-L611Q [8]; GluN2A-L611Q, presence of 1 mM Mg^2+
  enhanced potency compared to the WT receptors: 3.7 fold
[9]; w/ 1 mM Mg^2+
  % inhibition: 81 ± 1.6% (8) ^*^¥
[9]; w/o Mg^2+
  % inhibition: 90 ± 2.5% (7)
GluN1/GluN2B-N615I; w/ 1 mM Mg^2+
  % inhibition: 98 ± 0.7% (13)
GluN1/GluN2B-N615I; w/o Mg^2+
  % inhibition: 96 ± 1.1% (11)
GluN1/GluN2B-N615I; GluN2B-N615I, absence of Mg^2+
  enhanced potency in comparison to WT NMDARs: 4.3 fold
GluN1/GluN2B-N615I; GluN2B-N615I, presence of 1 mM Mg^2+
  enhanced potency compared to the WT receptors: 7.2 fold
GluN1/GluN2B-N615K; w/ 1 mM Mg^2+
  % inhibition: 12 ± 1.9% (21) ^*^¥
GluN1/GluN2B-N615K; w/o Mg^2+
  % inhibition: 22 ± 2.5% (14)^¥
[10]; w/ 1 mM Mg^2+
  % inhibition: 87 ± 2.1% (14)^¥
[10]; w/o Mg^2+
  % inhibition: 85 ± 1.5% (16)^¥

## [Mg+2] [Mg^2+]
WT GluN1/GluN2A [11]
  z δ: 1.97
WT GluN1/GluN2A [11]; read-out: KD, 0 mV
  Kd: 1520 µM
GluN1/GluN2B-V620M; 1 mM Mg^2+ alone
  z δ: 1.47
GluN1/GluN2B-V620M; read-out: KD, 0 mV, 1 mM Mg^2+ alone
  Kd: 3930 µM
WT GluN1/GluN2B [12]
  z δ: 1.96
WT GluN1/GluN2B [12]; read-out: KD, 0 mV
  Kd: 1830 µM
GluN1/GluN2A-L611Q [13]
  z δ: 1.21
GluN1/GluN2A-L611Q [13]; read-out: KD, 0 mV
  Kd: 13000 µM

From PMC10902181 (Journal of neurochemistry, 2023)
